Data: US20230201290A1, “TGF-BETA INHIBITION, AGENTS AND COMPOSITION THEREFOR” (GMP BIOTECHNOLOGY LIMITED, priority 2020, published 2023)

Assays:
[1] = Toxicology in monkeys (LOAEL); assay type: in vivo
colorectal cancer = test: Phase I/II study P001: patients with colorectal cancer; assay type: in vivo, human; conditions: all colorectal patients independent of dose and schedule
Description: (§1) P001 is a completed Phase I/II dose escalation study. Primary objective is the determination of the MTD as well as the DLT of 2 cycles as core treatment and up to 8 optional extension cycles of trabedersen administered i.v. for 4 or 7 d every other week, as described in the following. The study followed a classical cohort design with 3 evaluable patients per cohort. Patients treated with the 1st schedule received trabedersen continuously for 7 d, followed by a treatment-free interval of 7 d for each treatment cycle (7-d-on, 7-d-off). After the MTD had been reached for this schedule, a 2nd schedule of 4 d trabedersen administration, followed by a treatment-free interval of 10 d for each treatment cycle was started (4-d-on, 10-d-off). In this treatment schedule the MTD has not been reached.
Trabedersen was administered as i.v. continuous infusion for 4 or 7 days every other week via an implanted subcutaneous port system connected to a portable pump and with a flow rate of 0.8 mL/h. […]
(§2) The overall survival is calculated for all patients as the survival time from the onset of treatment with study medication to death due to any cause and analyzed with the Kaplan-Meier method.
One patient with AJCC Stage IV colorectal cancer treated in the 240 mg/m^2/day cohort of the 7-day-on, 7-day-off schedule was assessed with stable disease and survived for 7.3 months. […]

[2] = tested on: patient derived autologous HGG cells; test: LAK cell-mediated autologous cytotoxicity (calcein-release assay); assay type: cell-based, human; conditions: untreated control 16%
Description: Human HGG cells were obtained from surgical specimens of 5 patients. PBMCs from these patients were activated with human recombinant IL-2 to generate lymphokine-activated killer (LAK) cells as effector cells, which are known to lyse most autologous and allogenic fresh human tumor cells. LAK cell-mediated cytotoxicity against the patient derived autologous HGG cells (target cells) was tested in a cell co-culture system using the calcein-release assay.

IL-6 = conditions: data-mining of P001 cytokine profiling
human PBMCs = test: Viability and proliferation of human PBMCs; assay type: cell-based
Description: Cell viability was assessed following treatment of human PBMCs with trabedersen in vitro using the Trypan blue exclusion test. Freshly isolated, IL-2 activated PBMCs from healthy donors and HGG patients were incubated either without trabedersen or with 1, 5, 10 or 80 μM trabedersen for 2, 3, 6, 7, 14, and 21 day. […] There was no difference in cell viability between untreated and trabedersen treated cells.

malignant melanoma = test: Phase I/II study P001: patients with malignant melanoma; assay type: in vivo, human
[3] = tested on: advanced pancreatic cancer; test: Phase I/II study P001: patients with pancreatic cancer; assay type: in vivo, human
Description: as §1
Trabedersen was administered as i.v. continuous infusion for 4 or 7 days every other week via an implanted subcutaneous port system connected to a portable pump and with a flow rate of 0.8 mL/h. The core treatment consisted of 2 treatment cycles. Up to 8 optional extension cycles were administered in case of clinical benefit.
as §2
Altogether 21 patients with pancreatic cancer were treated during dose escalation.
There was no clear dose-response relationship, neither in the 7-days-on, 7-days-off schedule nor in the 4-days-on, 10-days-off schedule. A similar pattern is seen when the 5 patients with malignant melanoma and 5 patients with colorectal cancer treated during dose-escalation are also included.

C8161 human melanoma = test: Orthotopic C8161 human melanoma model; conditions: group 2: 16 mg/kg SC 3 times/week
TGF-β2 secretion = TGF-β2 secretion in human tumor cell lines; assay type: cell-based; conditions: human HGG cell line A-172, 7 days, 10 trabedersen (unit not given)
Description: The effect of trabedersen on TGF-β2 secretion was analyzed in cell lines of human HGG, human pancreatic carcinoma, malignant melanoma, colorectal carcinoma, and other tumors (prostate carcinoma, renal cell carcinoma, and non-small cell lung carcinoma). The TGF-β2 concentration in cell culture supernatants after treatment with trabedersen for 7 days was analyzed.
The biological activity of truncated trabedersen, i.e. metabolites, in comparison to full-length trabedersen with respect to inhibition of TGF-β2 secretion was tested in the human HGG cell line A-172.

## cggcatgtct attttgta (antisense CGGCATGTCTATTTTGTA; chemistry not given here) [OT-101, synthetic antisense oligodeoxynucleotide against TGF-beta2]
[1]
  Lowest-Observed-Adverse-Effect Level (LOAEL), equivalent in human adults: 48 mg/m^2/day
Colorectal cancer
  mOS: 3.0 months
SARS-CoV (Urbani strain); SARS-CoV (Urbani strain), Vero 76, CPE neutral red, day 5
  EC50: 50% effective antiviral concentration: 7.6 µg/mL
SARS-CoV (Urbani strain); SARS-CoV, Vero 76 cells
  SI (CC50/EC50): >38
Vero 76 cells
  CC50: > 1000 µg/mL
Vero 76 cells; 1000 μg/ml
  Toxicity at the highest dose: not toxic
[2]
  autologous cytotoxicity against human HGG cells, mean: 40%
IL-6
  signal of cytokine storm following treatment: no signal of cytokine storm
Human PBMCs; 80 μM, 7 days
  PBMC proliferation, of untreated control cells: 67%
Human PBMCs; 1, 5, 10 or 80 μM, up to 21 day, Trypan blue
  effects on the viability of PBMCs: No relevant effects
Human PBMCs; 5, 10 or 50μM
  Proliferation of PBMCs: within the range of variation
Malignant melanoma; 4-days-on, 10-days-off schedule
  Survival: 11.4 months
Malignant melanoma; 4-days-on, 10-days-off, with subsequent therapies
  mOS: 13.5 months
Malignant melanoma; 4-days-on, 10-days-off, without subsequent therapies
  mOS: 6.0 months
Malignant melanoma; 7-days-on, 7-days-off schedule
  Survival: 7.8 months
Malignant melanoma; 14 additional patients, 140 mg/m^2/day, 4-days-on, 10-days-off
  mOS: 10.4 months
Malignant melanoma; all melanoma patients independent of dose and schedule
  mOS: 11.4 months
Malignant melanoma; last cohort 140 mg/m2/day, followed by subsequent therapy
  mOS: 13.5 months
Malignant melanoma; last cohort 140 mg/m2/day, no subsequent therapy
  mOS: 6.0 months
Malignant melanoma; melanoma patients of dose escalation
  mOS: 13.8 months
Malignant melanoma; two patients, 2nd-line, 140 mg/m^2/day 4-on/10-off
  mOS: 9.5 months
[3]; 2nd-line therapy, independent of dose and schedule
  mOS: 8.9 months
[3]; 2nd-line, 140 mg/m^2/day 4-on/10-off, no subsequent chemotherapy
  mOS: 2.6 months
[3]; 2nd-line, 140 mg/m^2/day 4-on/10-off, with subsequent chemotherapy
  mOS: 16.9 months
[3]; 2nd-line, 140 mg/m^2/day, 4-days-on, 10-days-off
  mOS: 14.5 months
[3]; 4-days-on, 10-days-off, 140 mg/m^2/day
  Median Overall Survival, Patients with pancreatic cancer: 14.5 months
[3]; 4-days-on, 10-days-off, 140 mg/m^2/day (additional patients)
  Median Overall Survival, Patients with pancreatic cancer: 3.3 months
[3]; 4-days-on, 10-days-off, 190 mg/m^2/day
  Median Overall Survival, Patients with pancreatic cancer: 6.2 months
[3]; 4-days-on, 10-days-off, 250 mg/m^2/day
  Median Overall Survival, Patients with pancreatic cancer: 7.3 months
[3]; 4-days-on, 10-days-off, 330 mg/m^2/day
  Median Overall Survival, Patients with pancreatic cancer: 2.4 months
[3]; 7-days-on, 7-days-off, 40 mg/m^2/day
  Median Overall Survival, Patients with pancreatic cancer: 6.9 months
[3]; 7-days-on, 7-days-off, 80 mg/m^2/day
  Median Overall Survival, Patients with pancreatic cancer: 4.6 months
[3]; 7-days-on, 7-days-off, 160 mg/m^2/day
  Median Overall Survival, Patients with pancreatic cancer: 3.9 months
[3]; 7-days-on, 7-days-off, 240 mg/m^2/day
  Median Overall Survival, Patients with pancreatic cancer: 5.5 months
[3]; all 35 pancreatic carcinoma patients, independent of dose and schedule
  mOS: 4.9 months
[3]; dose escalation, 4-days-on, 10-days-off schedule
  mOS: 9.3 months
[3]; dose escalation, 7-days-on, 7-days-off schedule
  mOS: 5.7 months
SARS-COV-2 USA_WA1/2020; SARS-CoV-2
  SI=CC50/EC50: >500
SARS-COV-2 USA_WA1/2020; SARS-CoV-2, Vero 76 cells
  SI (CC50/EC50): >500
SARS-COV-2 USA_WA1/2020; SARS-CoV-2 USA_WA1/2020, Vero 76, CPE neutral red, day 5
  EC50: 50% effective antiviral concentration: 2.0 µg/mL
SARS-COV-2 USA_WA1/2020; read-out: EC50 (value in brackets), SARS-CoV-2 USA_WA1/2020, Vero 76
  EC50: 330 nM
C8161 human melanoma
  Tumor growth suppressed versus control group 1 on day 42: 2%
TGF-β2 secretion
  highest inhibitory effect on TGF-β2 secretion: 64%
